# According to US7220425B2, “Method for therapy of liver tumors” (Federalnoe Gosudarstvennoe Unitarnoe Predpriyatie …, priority 2000, dated 2007):
# What was measured:
# Format in all cases: in vivo, rats
# [1] = Effect of length of occlusion of afferent and abducent vessels on accumulation of Teraphtalum; conditions: for Content of Teraphtalum: 35 min after administration
# Method: (§1) Practically speaking, the method is carried out in the following manner. A median laparotomy is conducted, afferent (a branch of the portal vein and hepatic artery) and efferent (a branch of the hepatic vein) vessels of the target lobe of the liver are isolated. They are taken on tourniquets. A puncture of the branch of the portal vein is made, the preparation is introduced therein, simultaneously stopping the flow of blood: the blood inflow—through branches of the portal vein (proximal to the place of puncture) and the hepatic artery, outflow—through a branch of the hepatic vein. Restoration of the blood flow is accomplished by removing clamps from the vessels 5–15 minutes after administration of the preparation.
# (§2) Teraphtalum in a dose of 60 or 300 μg per rat in the form of 0.6 ml of a 0.01 and 0.05% solution was administered into a branch of the portal vein of a target lobe of the liver.
# The results of a study of the effect of the length of the period of occlusion of the afferent and abducent vessels of the target lobe of the liver on the accumulation of TP therein are presented in Table 3.
# [2] = Distribution of Teraphtalum with the proposed regional method (branch of portal vein of target lobe with occlusion); conditions: for Content of Teraphtalum: proposed method, 0.3 mg (0.6 ml, 0.01% solution), healthy rats
# Method: as §1
# (§3) The studies were carried out on mongrel rats weighing 150 g, obtained from the N. V. Blokhin ONTs breeder and contained in the vivarium of that center.
# as §2
# Accumulation of the preparation in the target lobe (subjected to occlusion), in the intact lobe of the liver (not subjected to occlusion) and also in the blood plasma were studied 5, 35 and 240 minutes after administration of the preparation by the proposed method.
# [3] = Distribution of Teraphtalum with the known regional administration (general trunk of portal vein); conditions: known regional method, 5 mg/kg
# Method: as §3
# Teraphtalum (TP) was administered once into the general trunk of the portal vein in a dose of 5 mg/kg (this was 1 mg of TP for a rat weighing 200 g). Accumulation of the preparation in the liver, lungs and its level in blood plasma were evaluated by the spectrophotometric method 5, 35 and 240 minutes after the administration.
compound,measurement,setting,value
"O=C(O)c1cc2c(cc1C(=O)O)C1=Nc3c4cc(C(=O)O)c(C(=O)O)cc4c4[n]3[Co][n]3c(c5cc(C(=O)O)c(C(=O)O)cc5c3=NC3=NC(=N4)c4cc(C(=O)O)c(C(=O)O)cc43)=NC2=N1 [Teraphtalum, cobalt octacarboxy phthalocyanine]",Content of Teraphtalum,"[1]; blood plasma, control = selective administration without occlusion",6 µg/g
same,Content of Teraphtalum,"[1]; blood plasma, occlusion 5 min, 0.3 mg (0.6 ml of 0.01% solution), proposed method",5 µg/g
same,Content of Teraphtalum,"[1]; blood plasma, occlusion 15 min, 0.3 mg (0.6 ml of 0.01% solution), proposed method",7 µg/g
same,Content of TP,"[1]; intact lobe of liver as worded in text, without occlusion (control), 30 minutes after administration",20 µg/g
same,Content of Teraphtalum,"[1]; intact lobe of liver, occlusion 5 min, 0.3 mg (0.6 ml of 0.01% solution), proposed method",7 µg/g
same,Content of Teraphtalum,"[1]; intact lobe of liver, occlusion 15 min, 0.3 mg (0.6 ml of 0.01% solution), proposed method",6 µg/g
same,Content of Teraphtalum,"[1]; intact lobe, control = selective administration without occlusion",17 µg/g
same,Content of Teraphtalum,"[1]; target lobe of liver, occlusion 5 min, 0.3 mg (0.6 ml of 0.01% solution), proposed method",35 µg/g
same,Content of Teraphtalum,"[1]; target lobe of liver, occlusion 15 min, 0.3 mg (0.6 ml of 0.01% solution), proposed method",35 µg/g
same,Content of Teraphtalum,"[1]; target lobe, control = selective administration without occlusion",20 µg/g
same,Content of TP,"[1]; that (target) lobe as worded in text, without occlusion (control), 30 minutes after administration",17 µg/g
same,Level of TP in the plasma,"[1]; without occlusion (control), 30 minutes after administration",6 μg/g of untreated tissue
same,"Concentration of TP in target lobe of liver, proposed method versus known regional method","[2]; first minutes after administration, dose in proposed method 16.5 times less",2 times higher
same,Content of Teraphtalum,"[2]; intact lobe of liver, 5 min",7 μg/g of untreated tissue
same,Content of Teraphtalum,"[2]; intact lobe of liver, 35 min",5 μg/g of untreated tissue
same,Content of Teraphtalum,"[2]; intact lobe of liver, 240 min",9 μg/g of untreated tissue
same,Content of Teraphtalum,"[2]; plasma, 5 min",3 μg/g of untreated tissue
same,Content of Teraphtalum,"[2]; target lobe of liver, 5 min",30 μg/g of untreated tissue
same,Content of Teraphtalum,"[2]; target lobe of liver, 35 min",33 μg/g of untreated tissue
same,Content of Teraphtalum,"[2]; target lobe of liver, 240 min",48 μg/g of untreated tissue
same,Content of Teraphtalum,"[3]; liver, 5 min after administration",15 μg/g of untreated tissue
same,Content of Teraphtalum,"[3]; liver, 35 min after administration",60 μg/g of untreated tissue
same,Content of Teraphtalum,"[3]; liver, 240 min after administration",51 μg/g of untreated tissue
same,Content of Teraphtalum,"[3]; lungs, 5 min after administration",46 μg/g of untreated tissue
same,Content of Teraphtalum,"[3]; lungs, 35 min after administration",28 μg/g of untreated tissue
same,Content of Teraphtalum,"[3]; lungs, 240 min after administration",57 μg/g of untreated tissue
same,Content of Teraphtalum,"[3]; plasma, 5 min after administration",92.4 μg/g of untreated tissue
same,Content of Teraphtalum,"[3]; plasma, 35 min after administration",39.6 μg/g of untreated tissue
same,Content of Teraphtalum,"[3]; plasma, 240 min after administration",14.4 μg/g of untreated tissue
